This is an account of results in BindingDB's records for doi:10.1021/jm00167a035 (Squibb Institute For Medical Research, 1990).

One experiment is described as follows: Inhibition of [3H]nitrendipine binding to L-type calcium channel in guinea pig ventricular myocardium membranes.
Usually Kd stands for the concentration at which binding is half-saturated. With `CCOC(=O)C1C(C)=NC(SC)=NC1c1cccc([N+](=O)[O-])c1` (configuration not stated), the equilibrium dissociation constant (Kd) amounted to 23 nM.

Assay in the next experiment: as above
This is another data set of the same source.
For the molecule `CSC1=NC(c2cccc([N+](=O)[O-])c2)C(C(=O)OC(C)C)=C(C)N1` (configuration not stated), the Kd was found to be 12 nM.
In the case of `CCOC(=O)C1=C(C)NC(SC)=NC1c1ccccc1C(F)(F)F` (configuration not stated), the Kd stood at 35 nM.
Take `CCOC(=O)C1=C(C)N=C(OC)NC1c1cccc([N+](=O)[O-])c1` (configuration not stated): the Kd was 105 nM.
Take `CCOC(=O)C1=C(C)NC(N(C)C)=NC1c1cccc([N+](=O)[O-])c1` (configuration not stated): the Kd was 3400 nM.
Take `COC(=O)C1=C(C)N=C(SC)NC1c1cccc([N+](=O)[O-])c1` (configuration not stated): the Kd came out at 120 nM.
Still for that read-out and setting: then `CCC(C)OC(=O)C1=C(C)NC(SC)=NC1c1cccc([N+](=O)[O-])c1` (configuration not stated), with 2.6 nM.
